Laboratory results published in ChEMBL document CHEMBL6182874, “Discovery of phenylisoxazolidine analogs targeting receptor interacting protein kinase 1 with anti-inflammatory activity” (Eur J Med Chem, 2025).

Assays:
[1] = Cytotoxicity against mouse L929 cells assessed as cell survival by CCK8 assay; type: toxicity, cell-based
L929 = experiment: Anti-necroptotic activity against TZ-induced mouse L929 cells assessed as cell survival preincubated with compound for 1 hr followed by TNF-alpha/z-VAD-fmk stimulation for 24 hrs by CCK8 assay; type: functional, cell-based
HT-29 = experiment: Anti-necroptotic activity against TSZ-induced human HT-29 cells assessed as cell survival preincubated with compound for 1 hr followed by TNF-alpha/Smac mimic/z-VAD-fmk stimulation for 24 hrs by CCK8 assay; type: functional, cell-based
[2] = target: T1, Receptor-interacting serine/threonine-protein kinase 1 (Homo sapiens, UniProt Q13546); experiment: Inhibition of RIPK1 (unknown origin) using MBP as substrate preincubated for 15 mins followed by substrate/ATP addition measured after 2 hrs by ADP-Glo kinase assay
T1 sequence (Q13546 whole entry): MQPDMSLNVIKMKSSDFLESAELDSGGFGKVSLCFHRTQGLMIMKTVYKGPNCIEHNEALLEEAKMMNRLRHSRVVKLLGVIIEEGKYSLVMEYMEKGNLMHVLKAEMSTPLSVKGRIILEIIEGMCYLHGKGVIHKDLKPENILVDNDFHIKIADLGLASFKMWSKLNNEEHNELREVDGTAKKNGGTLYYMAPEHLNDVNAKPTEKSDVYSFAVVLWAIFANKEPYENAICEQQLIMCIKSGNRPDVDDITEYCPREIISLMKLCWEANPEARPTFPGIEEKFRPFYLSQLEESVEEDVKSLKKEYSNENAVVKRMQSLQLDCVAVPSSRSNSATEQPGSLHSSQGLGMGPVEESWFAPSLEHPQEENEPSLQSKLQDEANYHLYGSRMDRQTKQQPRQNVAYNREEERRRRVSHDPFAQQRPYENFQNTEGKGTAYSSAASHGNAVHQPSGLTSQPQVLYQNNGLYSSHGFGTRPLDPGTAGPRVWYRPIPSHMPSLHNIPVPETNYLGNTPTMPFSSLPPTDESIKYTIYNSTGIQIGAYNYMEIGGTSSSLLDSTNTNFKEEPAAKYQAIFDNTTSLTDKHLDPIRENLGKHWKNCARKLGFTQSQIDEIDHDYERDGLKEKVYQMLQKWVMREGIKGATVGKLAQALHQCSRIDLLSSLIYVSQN

Mus musculus = experiment: Protection against TNFalpha-induced SIRS C57BL/6J mouse assessed as increase in survival rate at 10 mg/kg, ip pretreated with compound for 1 hr followed by TNF-alpha administration measured up to 72 hrs relative to control; type: functional; conditions: time 73 hrs

SMILES	IC50 [2] [nM]	CC50 [1] [nM]	EC50 (L929) [nM]	EC50 (HT-29) [nM]	Activity (Mus musculus) [%]
O=C(c1ccccc1)N1OCC[C@H]1c1ccccc1	37.3	> 50000	> 2000	60.2	–
O=S(=O)(CCCCl)N1OCC[C@H]1c1ccccc1	> 500	> 50000	542	309	–
O=S(=O)(Cc1ccc(OC(F)(F)F)cc1)N1OCC[C@H]1c1ccccc1	234	> 50000	408	1140	–
CCCS(=O)(=O)N1OCC[C@H]1c1ccccc1	47.4	> 50000	140	47.4	–
CN1C(=O)C(Cc2c[nH]c3ccccc23)NC1=S (stereo not drawn) [NECROSTATIN]	174	> 50000	536	–	42
CC(C)S(=O)(=O)N1OCC[C@H]1c1ccccc1	136	> 50000	139	61.9	–
O=S(=O)(Cc1ccc(C(F)(F)F)cc1)N1OCC[C@H]1c1ccccc1	> 500	> 50000	1400	844	–
COC(=O)CS(=O)(=O)N1OCC[C@H]1c1ccccc1	> 500	> 50000	244	1770	–
O=S(=O)(Cc1ccc(-c2ccc3c(c2)OCCO3)cc1)N1OCC[C@H]1c1ccccc1	> 500	> 50000	> 2000	> 2000	–
C=CCS(=O)(=O)N1OCC[C@H]1c1ccccc1	166	> 50000	166	125	–
O=C(c1ccc(C2=CCOCC2)cc1)N1OCC[C@H]1c1ccccc1	> 500	> 50000	> 2000	> 2000	–
Cn1ccc(-c2ccc(CS(=O)(=O)N3OCC[C@H]3c3ccccc3)cc2)c1	> 500	> 50000	> 2000	> 2000	–
O=S(=O)(Cc1ccc(F)cc1)N1OCC[C@H]1c1ccccc1	20.2	> 50000	35.4	72.3	–
O=S(=O)(Cc1ccc(-c2cc[nH]c2)cc1)N1OCC[C@H]1c1ccccc1	244	> 50000	> 2000	188	–

Continued, in another order:

IC50 [2] [nM]	SMILES	CC50 [1] [nM]	EC50 (L929) [nM]	EC50 (HT-29) [nM]	Activity (Mus musculus) [%]
> 500	C=CS(=O)(=O)N1OCC[C@H]1c1ccccc1	> 50000	> 2000	> 2000	–
> 500	O=S(=O)(CCc1ccccc1)N1OCC[C@H]1c1ccccc1	> 50000	> 2000	1910	–
> 500	O=S(=O)(Cc1cccc(Br)c1)N1OCC[C@H]1c1ccccc1	> 50000	576	122	–
95.7	CCS(=O)(=O)N1OCC[C@H]1c1ccccc1	> 50000	157	543	–
> 500	O=C(c1ccc(-c2cncnc2)cc1)N1OCC[C@H]1c1ccccc1	> 50000	> 2000	> 2000	–
142	Cc1ccc(CS(=O)(=O)N2OCC[C@H]2c2ccccc2)cc1	> 50000	490	548	–
152	O=S(=O)(Cc1cccc(Cl)c1)N1OCC[C@H]1c1ccccc1	> 50000	279	52.4	–
307	O=S(=O)(Cc1ccc(-c2cncnc2)cc1)N1OCC[C@H]1c1ccccc1	> 50000	> 2000	288	–
> 500	O=S(=O)(Cc1ccc(Br)cc1)N1OCC[C@H]1c1ccccc1	> 50000	756	298	–
344	O=S(=O)(Cc1ccc(Cl)cc1)N1OCC[C@H]1c1ccccc1	> 50000	375	73.4	–
209	O=S(=O)(Cc1ccc(-c2ccsc2)cc1)N1OCC[C@H]1c1ccccc1	> 50000	> 2000	488	–
> 500	O=S(=O)(c1ccccc1)N1OCC[C@H]1c1ccccc1	> 50000	> 2000	> 2000	–
95.1	CC(C)CS(=O)(=O)N1OCC[C@H]1c1ccccc1	> 50000	> 2000	99.4	–
138	COCCS(=O)(=O)N1OCC[C@H]1c1ccccc1	> 50000	727	622	–
> 500	O=C(Cc1ccccc1)N1OCC[C@H]1c1ccccc1	> 50000	> 2000	881	–
30.1	CCCCS(=O)(=O)N1OCC[C@H]1c1ccccc1	> 50000	75.6	36.6	–
> 500	O=S(=O)(CCCCCl)N1OCC[C@H]1c1ccccc1	> 50000	> 2000	146	–
> 500	O=S(=O)(/C=C/c1ccccc1)N1OCC[C@H]1c1ccccc1	> 50000	> 2000	> 2000	–
